How the values were obtained:
[1] = test system: MCF7; test: cells; conditions: Homo sapiens, MCF7, 48 h
Description: Antiproliferative activity against human MCF7 cells assessed as reduction in cell viability measured for 48 hrs by MTT assay

[2] = molecular target: Histone deacetylase 3 (Homo sapiens, UniProt O15379); test: Inhibition of human recombinant HDAC3 using Ac-Leu-Gly-Lys (Ac)-AMC as substrate preincubated with compound for 10 mins followed by substrate addition and measured after 45 mins by TECAN microtiter plate reader analysis
[3] = molecular target: T1, Protein deacetylase HDAC6 (Homo sapiens, UniProt Q9UBN7); test: Inhibition of human recombinant HDAC6 using Ac-Leu-Gly-Lys (Ac)-AMC as substrate preincubated with compound for 10 mins followed by substrate addition and measured after 45 mins by TECAN microtiter plate reader analysis
T1 sequence (Q9UBN7 whole entry): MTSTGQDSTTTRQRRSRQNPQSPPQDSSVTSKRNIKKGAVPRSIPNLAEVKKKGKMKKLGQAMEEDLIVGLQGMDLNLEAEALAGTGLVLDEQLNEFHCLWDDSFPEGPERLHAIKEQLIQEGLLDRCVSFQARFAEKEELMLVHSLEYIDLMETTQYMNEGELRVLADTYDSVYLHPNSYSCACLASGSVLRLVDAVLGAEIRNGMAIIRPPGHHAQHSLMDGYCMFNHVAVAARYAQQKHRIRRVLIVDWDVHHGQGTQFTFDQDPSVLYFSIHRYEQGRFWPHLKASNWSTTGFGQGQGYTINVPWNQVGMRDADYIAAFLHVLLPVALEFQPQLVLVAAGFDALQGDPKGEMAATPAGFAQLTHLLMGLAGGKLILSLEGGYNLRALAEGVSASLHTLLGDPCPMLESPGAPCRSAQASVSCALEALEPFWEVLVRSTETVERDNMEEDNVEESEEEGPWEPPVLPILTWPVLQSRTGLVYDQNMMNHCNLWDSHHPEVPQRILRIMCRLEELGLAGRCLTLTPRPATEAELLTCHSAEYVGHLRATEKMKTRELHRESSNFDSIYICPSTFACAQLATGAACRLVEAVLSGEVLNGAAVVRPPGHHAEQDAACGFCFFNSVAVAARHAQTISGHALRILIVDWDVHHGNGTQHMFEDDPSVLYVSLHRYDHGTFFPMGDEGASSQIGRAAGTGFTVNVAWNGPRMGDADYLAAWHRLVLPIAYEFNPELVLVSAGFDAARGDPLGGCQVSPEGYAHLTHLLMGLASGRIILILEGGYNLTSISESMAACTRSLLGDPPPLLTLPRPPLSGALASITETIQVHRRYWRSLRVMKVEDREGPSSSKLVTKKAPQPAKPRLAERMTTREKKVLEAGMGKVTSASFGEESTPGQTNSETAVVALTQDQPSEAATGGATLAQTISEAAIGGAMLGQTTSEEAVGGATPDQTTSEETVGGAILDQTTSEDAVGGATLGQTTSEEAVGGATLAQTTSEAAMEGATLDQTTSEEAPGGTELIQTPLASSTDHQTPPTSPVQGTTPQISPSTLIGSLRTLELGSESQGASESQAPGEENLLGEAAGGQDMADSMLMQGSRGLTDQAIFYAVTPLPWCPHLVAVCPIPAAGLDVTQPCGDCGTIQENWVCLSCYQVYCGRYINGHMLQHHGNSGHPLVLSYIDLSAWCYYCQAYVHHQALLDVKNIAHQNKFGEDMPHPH

[4] = test system: HCT-116; test: cells; conditions: Homo sapiens, HCT-116, 48 h
Description: Antiproliferative activity against human HCT-116 cells assessed as reduction in cell viability measured for 48 hrs by MTT assay

[5] = test system: HepG2; test: Antiproliferative activity against human HepG2 cells assessed as reduction in cell viability measured for 48 hrs by MTT assay; format: functional, cell-based; conditions: HepG2, 48 h
[6] = test system: Jurkat; test: Antiproliferative activity against human Jurkat T cells assessed as reduction in cell viability measured for 48 hrs by CCK-8 assay; format: functional, cell-based
[7] = molecular target: T2, Histone deacetylase 7 (Homo sapiens, UniProt Q8WUI4); test: Inhibition of human recombinant HDAC7 using Ac-Leu-Gly-Lys (Tfa)-AMC as substrate preincubated with compound for 10 mins followed by substrate addition and measured after 45 mins by TECAN microtiter plate reader analysis
T2 sequence (Q8WUI4 whole entry): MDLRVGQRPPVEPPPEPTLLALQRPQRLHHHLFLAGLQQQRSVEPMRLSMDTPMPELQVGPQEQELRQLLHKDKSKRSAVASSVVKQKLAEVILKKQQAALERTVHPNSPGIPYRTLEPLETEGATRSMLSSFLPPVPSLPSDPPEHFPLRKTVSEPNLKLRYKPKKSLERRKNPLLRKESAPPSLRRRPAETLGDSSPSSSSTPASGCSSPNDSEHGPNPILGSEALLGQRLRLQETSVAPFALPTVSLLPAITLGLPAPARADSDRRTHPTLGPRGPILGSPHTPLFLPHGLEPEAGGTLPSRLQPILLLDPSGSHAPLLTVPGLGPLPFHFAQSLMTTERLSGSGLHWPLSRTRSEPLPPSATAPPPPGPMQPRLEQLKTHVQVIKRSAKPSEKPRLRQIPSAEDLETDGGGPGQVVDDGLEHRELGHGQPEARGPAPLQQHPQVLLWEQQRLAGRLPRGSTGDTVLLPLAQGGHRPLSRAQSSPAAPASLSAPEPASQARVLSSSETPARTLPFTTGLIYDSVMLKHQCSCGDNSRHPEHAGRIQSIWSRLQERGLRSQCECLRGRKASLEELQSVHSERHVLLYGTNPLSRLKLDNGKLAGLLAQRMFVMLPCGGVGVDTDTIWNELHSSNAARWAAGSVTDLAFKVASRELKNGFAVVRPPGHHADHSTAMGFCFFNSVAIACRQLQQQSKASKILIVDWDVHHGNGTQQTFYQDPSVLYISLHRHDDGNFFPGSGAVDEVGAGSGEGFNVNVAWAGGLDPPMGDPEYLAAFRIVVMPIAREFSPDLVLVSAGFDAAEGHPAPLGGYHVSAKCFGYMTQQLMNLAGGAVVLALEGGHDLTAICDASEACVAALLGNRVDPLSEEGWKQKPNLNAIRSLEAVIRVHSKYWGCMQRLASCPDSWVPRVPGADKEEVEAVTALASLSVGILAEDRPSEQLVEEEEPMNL

[8] = molecular target: Histone deacetylase 1 (Homo sapiens, UniProt Q13547); test: Inhibition of human recombinant HDAC1 using Ac-Leu-Gly-Lys (Ac)-AMC as substrate preincubated with compound for 10 mins followed by substrate addition and measured after 45 mins by TECAN microtiter plate reader analysis
Sequence of Histone deacetylase 1 (Q13547 whole entry): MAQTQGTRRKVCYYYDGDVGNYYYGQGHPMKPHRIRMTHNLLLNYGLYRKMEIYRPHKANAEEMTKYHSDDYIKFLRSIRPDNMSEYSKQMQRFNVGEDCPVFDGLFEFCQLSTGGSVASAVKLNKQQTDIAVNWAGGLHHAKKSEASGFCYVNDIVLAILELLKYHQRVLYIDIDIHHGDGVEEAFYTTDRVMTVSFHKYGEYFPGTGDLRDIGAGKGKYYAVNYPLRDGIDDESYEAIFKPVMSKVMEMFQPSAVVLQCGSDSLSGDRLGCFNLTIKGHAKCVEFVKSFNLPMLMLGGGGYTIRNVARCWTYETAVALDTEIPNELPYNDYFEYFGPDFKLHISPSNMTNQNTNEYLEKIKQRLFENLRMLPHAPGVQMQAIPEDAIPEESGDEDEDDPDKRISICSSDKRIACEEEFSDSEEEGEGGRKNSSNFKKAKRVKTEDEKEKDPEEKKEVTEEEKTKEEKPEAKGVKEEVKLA

[9] = molecular target: T3, Histone deacetylase 8 (Homo sapiens, UniProt Q9BY41); test: Inhibition of human recombinant HDAC8 using Ac-Leu-Gly-Lys (Tfa)-AMC as substrate preincubated with compound for 10 mins followed by substrate addition and measured after 45 mins by TECAN microtiter plate reader analysis
T3 sequence (Q9BY41 whole entry): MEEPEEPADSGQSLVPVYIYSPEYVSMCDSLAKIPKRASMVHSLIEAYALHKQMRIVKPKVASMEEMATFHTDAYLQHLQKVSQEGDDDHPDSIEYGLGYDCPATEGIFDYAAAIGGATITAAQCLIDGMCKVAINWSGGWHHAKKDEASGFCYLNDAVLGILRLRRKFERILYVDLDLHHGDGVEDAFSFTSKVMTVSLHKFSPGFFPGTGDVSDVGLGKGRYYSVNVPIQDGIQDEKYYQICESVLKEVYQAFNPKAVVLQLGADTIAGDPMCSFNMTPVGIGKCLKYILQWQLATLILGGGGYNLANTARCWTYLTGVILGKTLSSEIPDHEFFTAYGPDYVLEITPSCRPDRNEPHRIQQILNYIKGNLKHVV

[10] = test system: B16-F10; test: Antiproliferative activity against mouse B16-F10 cells assessed as reduction in cell viability measured for 48 hrs by MTT assay; format: functional, cell-based; conditions: B16-F10, 48 h

Sequence of Histone deacetylase 3 (O15379 whole entry): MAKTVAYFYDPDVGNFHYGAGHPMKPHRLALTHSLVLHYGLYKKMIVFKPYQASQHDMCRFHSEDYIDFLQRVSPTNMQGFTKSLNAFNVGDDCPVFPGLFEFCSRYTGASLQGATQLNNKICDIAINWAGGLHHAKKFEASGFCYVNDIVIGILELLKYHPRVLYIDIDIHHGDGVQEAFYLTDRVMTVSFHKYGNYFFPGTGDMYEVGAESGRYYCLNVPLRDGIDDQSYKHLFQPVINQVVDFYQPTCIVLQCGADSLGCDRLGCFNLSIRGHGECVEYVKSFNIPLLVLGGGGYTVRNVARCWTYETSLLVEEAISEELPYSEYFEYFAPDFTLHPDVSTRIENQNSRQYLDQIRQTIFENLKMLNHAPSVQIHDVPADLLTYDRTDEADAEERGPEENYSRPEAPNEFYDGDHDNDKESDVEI

`Nc1ccccc1NC(=O)/C=C/c1ccc(-c2ncc(CNc3ccccc3)s2)cc1` showed an IC50 [1] of 4.9 µM, an IC50 [2] of 0.11 µM and an IC50 [3] of 8.01 µM. It also gave an IC50 [4] of 7.45 µM, an IC50 [5] of 0.9 µM and an IC50 [6] of 0.2 µM. The IC50 [7] was > 10 µM, the IC50 [8] was 0.31 µM and the IC50 [9] was > 10 µM. The IC50 [10] was 3.49 µM.
With `CCCNNC(=O)CNC(=O)c1ncc(CNc2ccccc2)s1` the IC50 [6] was > 10 µM.
For `Nc1ccccc1NC(=O)CNC(=O)c1ncc(CNc2ccccc2)s1`, the IC50 [6] was > 10 µM.
With `Nc1ccccc1NC(=O)CCCCNC(=O)c1ncc(CNc2ccccc2)s1` the IC50 [6] was 0.95 µM.
With `Nc1ccccc1NC(=O)CCCC(=O)Nc1ccc(-c2ncc(CNc3ccccc3)s2)cc1` the IC50 [6] was 1.02 µM.
`Nc1ccccc1NC(=O)c1ccc(NC(=O)c2ccc(-c3ncc(CNc4ccccc4)s3)cc2)cc1` gave an IC50 [1] of 3.19 µM, an IC50 [2] of 0.094 µM and an IC50 [3] of 9.1 µM. For the same compound, the IC50 [4] was 1.05 µM, the IC50 [5] was > 10 µM and the IC50 [6] was 0.07 µM. The IC50 [7] was > 10 µM, the IC50 [8] was 0.64 µM and the IC50 [9] was > 10 µM. For the same compound, the IC50 [10] was 1.6 µM.
`Nc1ccccc1NC(=O)CCCCCNC(=O)c1ncc(CNc2ccccc2)s1` gave an IC50 [6] of 1.06 µM.
In the case of `CCCNNC(=O)CCCCNC(=O)c1ncc(CNc2ccccc2)s1`, the IC50 [6] is reported as 1.18 µM.
`CCCNNC(=O)CCCCCCNC(=O)c1ncc(CNc2ccccc2)s1` was tested, and the IC50 [6] was 1.51 µM.
`CCCNNC(=O)CCCNC(=O)c1ncc(CNc2ccccc2)s1` gave an IC50 [6] of 4.88 µM.
In the case of `Nc1ccccc1NC(=O)CC(=O)Nc1ccc(-c2ncc(CNc3ccccc3)s2)cc1`, the IC50 [6] is reported as > 1.22 µM.
`Nc1ccccc1NC(=O)/C=C/c1ccc(CNC(=O)c2ncc(CNc3ccccc3)s2)cc1` gave an IC50 [6] of 0.39 µM.
`Nc1ccccc1NC(=O)CCCCCCNC(=O)c1ncc(CNc2ccccc2)s1` was tested, and the IC50 [6] was 0.45 µM.
`Nc1ccccc1NC(=O)CCNC(=O)c1ncc(CNc2ccccc2)s1` was tested, and the IC50 [6] was 5.15 µM.
`Nc1ccccc1NC(=O)CCCCC(=O)Nc1ccc(-c2ncc(CNc3ccccc3)s2)cc1` showed an IC50 [6] of 0.67 µM.
